Assay results taken from patent publication US5364944A, “Substituted benzoylbenzene-, biphenyl- and 2-oxazole- alkanoic acid compounds” (American Home Products Corporation, priority 1993, dated 1994).
Structures can show the parent of a compound that is named as a salt.

Tests used:
LTB4 = assay: Reverse passive Arthus pleurisy assay, inflammatory mediator release: LTB4; type: in vivo, rat (male Lewis)
Experimental: The compounds of the invention are further tested in the reverse passive Arthus pleurisy assay to evaluate their effectiveness in inflammatory mediator release and/or the fluid and cellular phases of an inflammatory response.
(§1) This assay is carried out as follows:
A reverse passive Arthus reaction is induced in the pleural cavity of male Lewis rats (150-200 g; fasted overnight prior to use) by the intravenous administration of bovine serum albumin (BSA; 4 mg/0.2 ml) followed 30 minutes later by the injection of rabbit anti-BSA (1 mg/0.2 ml; lyophilized IgG fraction; Organon Teknika, West Chester, Pa.) into the right pleural space under halothane anesthesia. […] Animals are sacrificed at either the time of peak eicosanoid production (i.e. 5 minutes after anti-BSA for immunoreactive TxB2 10 minutes for immunoreactive LTB4, 20 minutes for immunoreactive LTC4) or at the time of peak neutrophil infiltration (4 hours after anti-BSA) by CO2 inhalation. The pleural cavity is then exposed, the fluid exudate removed by gentle vacuum aspiration and the volume of exudate is recorded. For the determination of cellular infiltration, the pleural cavity is rinsed with 3 ml of 0.1% EDTA in sterile saline, and the recovered wash is pooled with the exudate. Cell number is determined on a model ZBI Coulter counter. For determination of eicosanoid production, undiluted pleural exudate is microfuged and the supernatant is extracted with ethanol (8-10 times volume). Extracts are either stored at -20° C., or are evaporated to dryness under a stream of N2 and reconstituted in radioimmunoassay (RIA) buffer.
Eicosanoids are quantitated by RIA according to the procedure specified by the RIA kit manufacturer (Advanced Magnetics, Cambridge, Mass.). Briefly, 100 μl of ^3 H-labeled eicosanoid and 100 μl of specific antibody are sequentially added to 100 μl of extracted pleural exudate in BGG -phosphate buffer which contains 0.01 M phosphate, 0.1% bovine gamma globulin and 0.1% sodium azide at pH 7.0. Antibody-bound eicosanoid is separated from unbound eicosanoid by the addition of 750 μl of dextran (0.4%)-coated charcoal (0.4% Norit A) containing 0.1% sodium azide. The mixture is centrifuged at 2000 RPM at 5° C. for 15 minutes to pellet the charcoal and adsorbed unbound eicosanoid. Antibody-bound labeled eicosanoid is quantitated by counting in a liquid scintillation counter, and is correlated to concentration by a standard curve.
Inflammatory cells are expressed as 10^6 cells/ml, pleural exudate is expressed as ml of fluid, and the amount of eicosanoids in the pleural cavity is expressed as ng/ml of exudate. Mean ±S.E.M. is determined for each group. Percent inhibition (% I) of cell number, exudate volume and eicosanoid production is calculated for vehicle-treated control groups, and the responses in drug-treated rats are then expressed as the mean % I of the control. […] Exp. Ther., 96, 99-113 (1949).

[1] = system: 5-lipoxygenase in human whole blood; assay: Inhibition of 5-lipoxygenase in human whole blood (LTB4); type: cell-based
Experimental: The assay of this Example measures the ability of the compounds tested to inhibit 5-lipoxygenase in human whole blood.
as §1
Blood is obtained in 50-100 ml quantities from male donors. White blood cell counts and differentials are made. Two ml of blood are placed in a 15 ml polypropylene test tube. Compounds are solubilized in dimethylsulfoxide and diluted 1:10 in 10% bovine serum albumin in phosphate buffered saline, pH 7.4 resulting in a final dimethylsulfoxide concentration of 0.1% in the blood. Then, compounds are added to the blood in a shaking water bath at 37° C. for 10 minutes prior to the addition of 30 μM calcium ionophore (A23187; Sigma). After ionophore administration, whole blood samples are mixed and incubated for 20 minutes at […] in a shaking water bath. Incubation is terminated by placing samples in an ice bath and immediately adding ethylene glycol-bis-(β-aminoethyl ether)-N,N,N',N'-tetraacetic acid (10 mM). Samples are mixed and centrifuged at 1200×g for 15 minutes at 4° C. Preparation of samples for evaluation by RIA or ELISA is carried out by the following protocol. Plasma is removed from sample tubes, placed in 15 ml polypropylene test tubes containing 8 ml methanol, and then vortexed to precipitate protein. Samples are stored at -70° C. overnight. The next day, samples are centrifuged at 200×g for 15 minutes at 4° C. to pellet the precipitate. Samples are dried in a Savant speed vac concentrator, reconstituted to original volume with ice cold RIA or ELISA buffer, and stored at -70° C. until assayed. The assay for eicosanoids (LTB4, TxB2, and PGE2) is performed as described by the manufacturer of the [^3 H]-RIA kit or ELISA kit (LTB4 -Amersham, TxB2 and PGE2 - Caymen Chemical).
The total eicosanoid level in 2 ml of blood is calculated and reported as ng/10^6 neutrophils. […] Drug effects are expressed as percent change from control values.
Compounds tested in vitro are solubilized in dimethylsulfoxide and diluted 1:10 in 10% bovine serum albumin in phosphate buffer saline resulting in a final dimethylsulfoxide concentration of 0.1% in the blood.

[2] = target: T1, LTD4-induced contractions of isolated guinea pig trachea (Cavia porcellus, UniProt Q2NNR5); assay: In vitro isolated guinea pig trachea assay, LTD4 antagonist activity; parameters: species or system guinea pig (male Hartley)
T1 construct: isolated guinea pig trachea; from tissue; host or cells: tracheal rings of male Hartley guinea pigs
T1 sequence (Q2NNR5 1-340): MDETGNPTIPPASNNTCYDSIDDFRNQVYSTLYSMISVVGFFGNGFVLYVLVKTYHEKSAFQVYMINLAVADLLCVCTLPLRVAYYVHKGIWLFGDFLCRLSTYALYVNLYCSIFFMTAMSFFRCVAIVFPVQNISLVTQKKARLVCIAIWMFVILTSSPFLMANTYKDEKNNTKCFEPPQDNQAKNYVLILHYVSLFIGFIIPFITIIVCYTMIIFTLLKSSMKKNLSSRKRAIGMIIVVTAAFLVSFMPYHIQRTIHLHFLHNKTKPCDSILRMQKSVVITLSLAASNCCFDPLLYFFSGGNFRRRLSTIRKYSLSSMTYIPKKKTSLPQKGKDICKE
Experimental: The LTD4 antagonist activity of the compounds of the invention is assessed in the in vitro isolated guinea pig trachea assay. This assay is carried out as follows: Male Hartley guinea pigs (350-400 g) are euthanized by a blow to the head, the neck is opened and the trachea removed. The trachea is maintained in aerated physiological salt solution, cleared of connective tissue and fat and cut into rings approximately 2 mm in width (usually containing two cartilaginous segments per ring). Two pieces of silk suture are then passed through the lumen of the tracheal ting and are tied around the cartilage, one on each side of the trachealis muscle. The tracheal ring is suspended between a glass hook and a force displacement transducer in a 10 ml organ bath for measurement of isometric tension. […] The tracheal rings are maintained at 2 g resting tension and equilibrated for 45 minutes (with frequent washing and readjustment of resting tension). The tracheal […] contracted by the addition of carbachol (3×10^-6 M), to determine tissue responsiveness and establish a reference contraction. On attainment of a stable level of contraction (approximately 30 minutes), the tissues are washed several times until baseline tension has been restored and the re-equilibrated for 30 minutes. The tissues are then incubated for 45 minutes with a test antiagonist (either 1×10^-6 M or 1×10^-5 M) or 10 μl of an appropriate solvent control (control, nontreated). One tissue in each group serves as the control. Twenty minutes prior to the construction of the LTD4 cumulative concentration-response curve, L-[…]×10^-2 M final bath concentration) is added to inhibit bioconversion of LTD4 to LTE4. Only one LTD4 concentration-response curve is constructed in each tissue. All responses to LTD4 in an individual tissue are measured as a percentage of the reference contraction of that tissue to carbachol. LTD4 antagonist activity is determined by comparison of the concentration response curves of LTD4 in the presence and absence of antagonist. Assessment of the relative rightward shift of the antagonist treated curve relative to the solvent (control) treated tissue is calculated as a concentration ratio (Eq. A) and used in subsequent calculations to derive an antagonist pKB value (Eqs. B and C). […] If a compound is found to be active and/or depress the maximal response to LTD4, then a range of concentrations of the test compound should be used generating multiple concentration ratios which would then be used to perform a Schild analysis, and determination of a pA2 value where appropriate.

[3] = reference leukotriene antagonists

| Structure (SMILES) | Kb ([2]; 1 × 10^-5 M) | % Inhibition of LTB4 ([1]; at 10 μM) | further results |
| --- | --- | --- | --- |
| O=C(O)Cc1ccccc1Nc1c(Cl)cccc1Cl [Diclofenac, reference compound] |  |  | % Inh LTB4 (LTB4; 10 mg/kg p.o., standard drugs): 0% |
| O=C(O)CCc1nc(-c2ccc(OCc3ccc4ccccc4n3)cc2)c(-c2ccccc2)o1 [Example 5, 5-Phenyl-4-[4-(2-Quinolinylmethoxy)phenyl]-2-oxazole propanoic acid] | 316 nM |  | % Inhibition of LTB4 ([1]; at 25 μM): 11% |
| CN(O)C(=O)Cc1ccc(-c2ccc(OCc3ccc4ccccc4n3)cc2)c(F)c1 [Example 8, N-Hydroxy-N-methyl-2-fluoro-4'-(2-quinolinylmethoxy)-[1,1'-biphenyl]-4-acetamide] |  |  | IC50 [1]: 530 nM; % Inhibition of LTB4 ([1]; at 25 μM): 94% |
| O=C(O)CCc1nc(-c2ccc(OCc3ccc4ccccc4n3)cc2)c(-c2ccccc2)o1 [Example 10] |  |  | % Inhibition of LTB4 Synthesis (LTB4; 25 mg/kg p.o., 3 hours before challenge): 65% |
| O=C(Cc1ccc(-c2ccc(OCc3nc4ccccc4s3)cc2)cc1)NO [Example 14, N-Hydroxy-4'-(2-benzothiazolylmethoxy)[1,1'-biphenyl]-4-acetamide] | > 7940 nM |  | % Inhibition of LTB4 ([1]; at 25 μM): 5% |
| CN(O)C(=O)Cc1ccc(-c2ccc(OCc3csc(-c4ccccc4)n3)cc2)cc1 [Example 19, N-Hydroxy-N-methyl-4'-[(2-phenylthiazol-4-yl)methoxy][1,1'-biphenyl]-4-acetamide, sodium salt, sesquihydrate] |  |  | % Inhibition of LTB4 ([1]; at 25 μM, sodium salt, sesquihydrate): 83% |
| CN(O)C(=O)C(Cc1csc(-c2ccccc2)n1)c1ccc(-c2ccc(OCc3csc(-c4ccccc4)n3)cc2)cc1 (stereo not drawn) [Example 25] | > 7940 nM |  |  |
| CN(O)C(=O)Cc1ccc(-c2ccc(OCc3csc(-c4ccccc4)n3)cc2)c(F)c1 [Example 27] |  |  | IC50 [1]: 1300 nM; % Inhibition of LTB4 ([1]; at 25 μM): 69% |
| CN(O)C(=O)Cc1ccc(-c2ccc(OCc3ccccn3)cc2)c(F)c1 [Example 28, 2-Fluoro-N-hyroxy-N-methyl-4'-(2-pyridinylmethoxy)[1,1'-biphenyl]-4-acetamide] | > 3980 nM | 66% | IC50 [1]: 2300 nM |
| CN(O)C(=O)Cc1ccc(-c2ccc(OCc3nc4ccccc4n3C)cc2)c(F)c1 [Example 29, 2-[2-Fluoro-4'-(1-methyl-1H-benzimidazol-2-ylmethoxy)biphenyl-4-yl]-N-hydroxy-N-methyl-4-acetamide] | 631 nM | 74% | IC50 [1]: 700 nM |
| CC(=O)N(O)C(C)c1ccc(-c2ccc(OCc3nc4ccccc4s3)cc2)cc1 (stereo not drawn) [Example 34, N-{1-[4'-(Benzothiazol-2-ylmethoxy)-biphenyl4-yl]-ethyl}-N-hydroxy-acetamide] | > 10000 nM | 36% |  |
| CC(c1ccc(-c2ccc(OCc3nc4ccccc4o3)cc2)cc1)N(O)C(N)=O (stereo not drawn) [Example 35] | > 5010 nM | 51% |  |
| CC(=O)N(O)C(C)c1ccc(-c2ccc(OCc3nc4ccccc4o3)cc2)cc1 (stereo not drawn) [Example 36, N-{1-[4'-(Benzoxazol-2-ylmethoxy)-biphenyl-4-yl]ethyl}-N-hydroxy-acetamide] |  | 77% |  |
| CC(=O)N(O)C(C)c1ccc(-c2ccc(OCc3nc4ccccc4n3C)cc2)cc1 (stereo not drawn) [Example 37] | > 3160 nM | 61% |  |
| CC(c1ccc(-c2ccc(OCc3csc(-c4ccccc4)n3)cc2)cc1)N(O)C(N)=O (stereo not drawn) [Example 38, 1-{1-[4'-(2-Phenylthiazol-4-ylmethoxy)-biphenyl4-yl]-ethyl}-1-hydroxy-urea] |  | 46% |  |
| CC(=O)N(O)C(C)c1ccc(-c2ccc(OCc3csc(-c4ccccc4)n3)cc2)cc1 (stereo not drawn) [Example 39, N-{1-[4'-(2-Phenylthiazol-4-ylmethoxy)-biphenyl-4-yl]-ethyl}-N-hydroxy-acetamide] |  | 43% |  |
| CC(c1ccc(-c2ccc(OCc3nc4ccccc4s3)cc2)c(F)c1)N(O)C(N)=O (stereo not drawn) [Example 40, 1-{1-[4'-(Benzothiazol-2-ylmethoxy)-2-fluoro(1,1'-biphenyl)-4-yl]ethyl}-1-hydroxy-urea] |  | 47% |  |
| CCCc1c(OCCCCc2nnn[nH]2)ccc(C(C)=O)c1O [Ly-171,883, reference compound] |  |  | Kb [2, 3]: 36.3 nM |
| O=S(=O)(Nc1cccc(OCc2ccc3ccccc3n2)c1)C(F)(F)F [Wy-48,252, reference compound] |  |  | Kb [2, 3]: 126 nM |
